Laboratory results reported in PubChem BioAssay (NCI).
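48-hour exposure; five concentrations; linearly interpolated endpoints. At the GI50, growth is halved. TGI: concentration producing complete growth inhibition.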

What was measured:
Experiment in all cases: NCI tumour cell line growth inhibition, 48 h
[1] = tested on: RPMI-8226 leukemia
[2] = tested on: IGROV1 ovarian
[3] = tested on: HCT-116 colon
[4] = tested on: MOLT-4 leukemia
[5] = tested on: UACC-62 melanoma
[6] = tested on: SK-MEL-28 melanoma
[7] = tested on: HCT-15 colon
[8] = tested on: COLO 205 colon
[9] = tested on: HOP-62 NSCLC
[10] = tested on: MALME-3M melanoma

Compound: CO/N=C(\C)COc1ccc2c(=O)c(-c3ccccc3)coc2c1
- GI50 [1]: > 100 µM
- TGI [1]: > 100 µM
- GI50 [2]: 24.7 µM
- TGI [2]: 77.9 µM
- GI50 [3]: 14.8 µM
- TGI [3]: 30 µM
- GI50 [4]: > 100 µM
- TGI [4]: > 100 µM
- GI50 [5]: 26.3 µM
- TGI [5]: 93.6 µM
- GI50 [6]: > 100 µM
- TGI [6]: > 100 µM
- GI50 [7]: 40.1 µM
- TGI [7]: > 100 µM
- GI50 [8]: 11.2 µM
- TGI [8]: 32.4 µM
- GI50 [9]: 17.8 µM
- TGI [9]: 46.6 µM

Compound: COc1cc(C2C(C(=O)O)=C(COC(C)=O)Oc3cc4c(cc32)OCO4)cc(OC)c1OC (stereo unspecified)
- TGI [1]: > 100 µM
- TGI [2]: > 100 µM
- TGI [3]: > 100 µM
- TGI [10]: > 100 µM
- TGI [4]: > 100 µM
- TGI [5]: > 100 µM
- TGI [6]: > 100 µM
- TGI [7]: > 100 µM
- TGI [8]: > 100 µM
- TGI [9]: > 100 µM

Compound: CCCCCCOP(=O)(OCCCCCC)C(NC(=O)OCC)(C(F)(F)F)C(F)(F)F
- TGI [1]: > 100 µM
- TGI [2]: > 100 µM
- TGI [3]: 90.2 µM
- TGI [10]: > 100 µM
- TGI [4]: > 100 µM
- TGI [5]: > 100 µM
- TGI [6]: > 100 µM
- TGI [7]: > 100 µM
- TGI [8]: 32.3 µM
- TGI [9]: > 100 µM

Compound: CNC(=O)N(C)COC
- TGI [1]: > 100 µM
- TGI [2]: > 100 µM
- TGI [3]: > 100 µM
- TGI [10]: > 100 µM
- TGI [4]: > 100 µM
- TGI [5]: > 100 µM
- TGI [6]: > 100 µM
- TGI [7]: > 100 µM
- TGI [8]: > 100 µM
- TGI [9]: > 100 µM

Compound: CCOC(=O)C(O)(NC(=O)c1ccccc1F)C(F)(F)F (stereo unspecified)
- TGI [1]: > 100 µM
- TGI [2]: > 100 µM
- TGI [3]: > 100 µM
- TGI [10]: > 100 µM
- TGI [4]: > 100 µM
- TGI [5]: > 100 µM
- TGI [6]: > 100 µM
- TGI [7]: > 100 µM
- TGI [8]: > 100 µM
- TGI [9]: > 100 µM

Compound: N#Cc1c(N)sc2c1-c1ccccc1OC2
- TGI [1]: > 100 µM
- TGI [2]: > 100 µM
- TGI [3]: 82.8 µM
- TGI [10]: > 100 µM
- TGI [4]: > 100 µM
- TGI [5]: > 100 µM
- TGI [6]: > 100 µM
- TGI [7]: > 100 µM
- TGI [8]: > 100 µM
- TGI [9]: > 100 µM

Compound: CCc1ccc2nc(-c3ccc(O)cc3)sc2c1
- TGI [1]: 35.3 µM
- TGI [2]: 29.4 µM
- TGI [3]: 30.4 µM
- TGI [10]: 36.8 µM
- TGI [4]: 40.8 µM
- TGI [5]: 25.1 µM
- TGI [7]: 29.4 µM
- TGI [8]: 28.6 µM
